Experimental data published in patent publication US6645954B2, “Compositions comprising ethisterone or its derivatives” (Multimed Limited, priority 1998, dated 2003).
Where “and” joins values, the source holds several entries; their conditions need not be identical. Identical values can stand only once.

Tests used:
dihydrotestosterone = test: Dihydrotestosterone (DHT) in fasting blood; type: in vivo, human; details: Clinical trial; treatment alone, without Danazol
Excerpt: (§1) Fasting blood samples were taken between 9 and 12 am to minimize the effects of diurnal variation, and analyses included the standard full biochemical, lipid and haematology profiles, prostate specific antigen and routine urine analysis. The endocrine assessment included follicle stimulating hormone (FSH) and luteinizing hormone (LH) prolactin, total testosterone (TT), dihydrotestosterone (DHT), sex hormone binding globulin (SHBG), oestradiol (E2) cortisol and either total thyroxine or TSH.

[1] = Andropause CheckList score (ACL) and clinical symptom response in hypogonadal men; type: in vivo, human; details: for clinical response / symptoms: Example 2, person, pre-treatment ACL 25, successive treatments
Protocol: ACL—Andropause CheckList Score—A questionnaire rating the incidence and severity of symptoms of the andropause. The greater the checklist score, the more severe are the symptoms.
These consecutive referrals were evaluated at interview by administering a questionnaire, the “Andropause Check List” which rated each symptom on a five point rating scale as being absent (0), slight (1), moderate (2), severe (3) or total (4). It also included questions on the monthly frequency of intercourse and masturbation. A detailed history was taken focussing especially on factors which might affect testicular function and this was entered onto a computerised database (Microsoft Access).
(§2) During treatment, the severity of symptoms and level of sexual activity on the Andropause Check List score was reassessed at three monthly intervals, as well as weight, blood pressure, resting pulse rate, full endocrine, biochemical and haematological profiles, and in some cases ultrasound studies of the prostate and testes. In all cases, subjects were used as their own controls in the comparison of the effects of treatment. All results were stored in a specially designed Microsoft Access database, and […] analyes were carried out using the SPSS version 9 programme.

[2] = Sexual activity (intercourse per month) reported by subjects; type: in vivo, human; details: Example 5, person; D1 alone, within 3 months; before: once a month
Total Testosterone [3] = test: Total Testosterone (TT) in fasting blood; type: in vivo, human
Excerpt: TT—Total Testosterone in nmol/l (NR 13-35)
as §1

[4] = system: Follicle Stimulating Hormone; test: Follicle Stimulating Hormone (FSH) in fasting blood; type: in vivo, human
Excerpt: FSH—Follicle Stimulating Hormone in IU/l (NR 1-6)
as §1

[5] = system: Prostate Specific Antigen; test: PSA, biochemistry and haematology profiles during treatment; type: in vivo, human; details: Example 5; D1 alone, 2 years
Excerpt: PSA—Total Prostate Specific Antigen in ug/l (NR<4.0)
as §1, §2

progesterone receptors = molecular target: T1, progesterone receptors (Homo sapiens, UniProt P06401); details: cited from earlier work
T1 sequence (P06401 1-933): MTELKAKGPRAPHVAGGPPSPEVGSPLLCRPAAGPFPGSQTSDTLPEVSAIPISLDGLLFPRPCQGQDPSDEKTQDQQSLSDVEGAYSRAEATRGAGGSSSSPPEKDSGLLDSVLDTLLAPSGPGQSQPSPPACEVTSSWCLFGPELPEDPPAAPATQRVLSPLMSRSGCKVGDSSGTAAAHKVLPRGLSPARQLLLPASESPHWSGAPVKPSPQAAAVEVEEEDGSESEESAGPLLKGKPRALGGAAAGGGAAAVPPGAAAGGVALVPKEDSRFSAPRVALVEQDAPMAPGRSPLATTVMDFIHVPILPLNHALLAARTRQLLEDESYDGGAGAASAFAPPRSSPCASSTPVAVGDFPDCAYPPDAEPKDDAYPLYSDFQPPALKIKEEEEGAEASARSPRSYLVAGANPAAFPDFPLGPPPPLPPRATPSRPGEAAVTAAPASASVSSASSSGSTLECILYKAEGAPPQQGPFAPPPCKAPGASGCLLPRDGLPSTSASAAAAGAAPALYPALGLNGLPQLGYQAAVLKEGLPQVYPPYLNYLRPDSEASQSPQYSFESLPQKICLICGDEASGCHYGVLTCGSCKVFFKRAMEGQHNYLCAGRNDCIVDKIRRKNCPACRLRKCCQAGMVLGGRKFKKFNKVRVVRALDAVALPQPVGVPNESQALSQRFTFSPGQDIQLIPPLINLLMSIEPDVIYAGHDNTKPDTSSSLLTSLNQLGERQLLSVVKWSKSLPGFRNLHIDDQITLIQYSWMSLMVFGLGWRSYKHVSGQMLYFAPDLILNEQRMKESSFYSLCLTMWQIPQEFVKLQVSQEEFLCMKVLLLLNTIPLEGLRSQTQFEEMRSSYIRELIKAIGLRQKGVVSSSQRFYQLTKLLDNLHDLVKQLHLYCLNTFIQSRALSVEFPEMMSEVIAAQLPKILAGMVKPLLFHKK

[6] = system: Sex Hormone Binding Globulin; test: Sex Hormone Binding Globulin (SHBG) in fasting blood; type: in vivo, human; details: for Sex Hormone Binding Globulin: Clinical trial, FIG. 4, started above the normal range (20-45 nmol/l) in Danazol groups
Excerpt: SHBG—Sex Hormone Binding Globulin in nmol/l (NR 20-45)
as §1

oestrogen receptors = details: cited from earlier work
Oestradiol = Oestradiol (E2) in fasting blood; type: in vivo, human
Excerpt: as §1

Luteinising Hormone = Luteinising Hormone (LH) in fasting blood; type: in vivo, human
Excerpt: LH—Luteinising Hormone in IU/l (NR 0.7-6)
as §1

Total Testosterone [7] = details: cited from earlier work
Free Androgen Index = Free Androgen Index (FAI = TT/SHBG x 100); type: in vivo, human
Excerpt: It has been found (Carruthers, M. ‘The Male Menopause, Harpercollins’, London, 1996) that the symptoms associated with this condition arise due to an absolute or relative insufficiency of testosterone, particularly the latter, caused by a reduction in the Free Active Testosterone (FAT); that is a lack of testosterone present in an unbound state in blood plasma. Testosterone in vivo can be bound to sex hormone binding globulin (SHBG) and to a lesser extent, albumin. When bound the testosterone is not freely available to the body or bio-available. One of the best measures of this is the ‘Free Androgen Index’ (FAI). This is calculated by dividing the Total Testosterone (TT) by the ‘sex Hormone Binding Globulin’ (SHBG) and multiplying by a hundred to express it as a percentage. In the healthy, asymptomatic male this is normally in the range 70-100%. Symptoms of the andropause regularly appear when this drops below 50%, except in a few cases where the TT is low and the body appears to compensate by reducing SHBG levels to maintain the FAI.
FAI—Free Androgen Index (NR 70-100%)

[8] = Adverse effects / tolerability; details: Example 2
[9] = Example 1, R3 increased monthly to R4 then R6

C[C@H]1CC(=O)C[C@@H]2CC[C@H]3[C@@H]4CC[C@H](O)[C@@]4(C)CC[C@@H]3[C@]21C [ME, mesterolone]
DHT (dihydrotestosterone): trebling
clinical response / symptoms [1]: poor clinical response

C#C[C@]1(O)CC[C@H]2[C@@H]3CCC4=Cc5oncc5C[C@]4(C)[C@H]3CC[C@@]21C [Danazol, [1,2], oxazolo[4,5-b]17alpha-pregna-2,4-dien-20-yn-17beta-ol]
sexual activity [2]: twice a week
TT (Total Testosterone [3]; Example 5, D1 alone, within 3 months, pre-treatment 50): 48 nmol/L
FSH ([4]; Clinical trial, FIG. 6, Danazol added to the testosterone treatment): greater reductions
FSH ([4]; Example 5, D1 alone, within 3 months, pre-treatment 5.9): 4.5 IU/l
effects on PSA, full biochemistry or haematological profile [5]: no adverse effects
affinity for progesterone receptors (progesterone receptors): low affinity
Sex Hormone Binding Globulin [6]: uniformly ended at the bottom end of it
SHBG ([6]; Example 5, D1 alone, successive values over 2 years, listed as D1): 19 nmol/L and 23 nmol/L and 17 nmol/L
SHBG ([6]; Example 5, D1 alone, within 3 months, pre-treatment 72): 39 nmol/L
interaction with oestrogen receptors (oestrogen receptors): does not interact with oestrogen receptors to any significant extent
E2 (Oestradiol; Example 5, D1 alone, within 3 months, pre-treatment 120): < 44 pmol/L
LH (gonadotrophins) (Luteinising Hormone; Clinical trial, FIG. 7, Danazol added to the testosterone treatment): greater reductions
LH (Luteinising Hormone; Example 5, D1 alone, within 3 months, pre-treatment 6.0): 2.9 IU/l
total plasma testosterone (Total Testosterone [7]; previous uses in women and men at doses of 200 to 600 mg): reduced
Free Androgen Indices (Free Androgen Index; Clinical trial, FIG. 5, Danazol added to the three testosterone treatments): markedly increased
FAI (Free Androgen Index; Example 5, D1 alone, within 3 months, pre-treatment 69.4): 123%
total Andropause Check List (ACL) score ([1]; Clinical trial, FIG. 1, Danazol 100 mg alternate mornings or daily added to testosterone treatment, up to six 3-6 monthly visits): fell equally
efficacy of testosterone treatment for hypogonadal men ([1]; Clinical trial, danazol added to three different forms of testosterone treatment, particularly where SHBG raised): greatly increased their efficacy
clinical response ([1]; Example 5, D1 alone, for 2 years): maintained
ACL ([1]; Example 5, D1 alone, within 3 months, pre-treatment ACL 26): 14

C[C@]12CC[C@H]3[C@@H](CCC4=CC(=O)CC[C@@]43C)[C@@H]1CC[C@@H]2O [TI, testosterone]
adverse events of implant [8]: became infected on several occasions, with extrusion of pellets
TT (Total Testosterone [3]; Example 1, TI, a year later): 35.6 nmol/L
TT (Total Testosterone [3]; Example 3, TI, after 6 months): 30.6 nmol/L
FSH ([4]; Example 1, TI, a year later): total suppression
DHT (dihydrotestosterone): no increase
SHBG ([6]; Example 1, TI, a year later): 74 nmol/L
SHBG ([6]; Example 3, TI alone, successive values during the following 2 years): 82.1 nmol/L and 85 nmol/L and 54 nmol/L and 81 nmol/L
SHBG ([6]; Example 3, TI, after 6 months): 95.3 nmol/L
LH (Luteinising Hormone; Example 1, TI, a year later): total suppression
mean testosterone levels (Total Testosterone [7]; previous study, samples taken 3 months after implantation): 45 nmol/L
FAI (Free Androgen Index; Example 1, TI, a year later): 48%
FAI (Free Androgen Index; Example 3, TI, after 6 months): 32%
symptoms ([1]; Example 1, TI, 3 years after starting treatment): symptoms reappeared
erection problems ([1]; Example 1, after change to TI): rapidly improved
clinical response / symptoms [1]: relieved their symptoms

CCCCCCCCCCC(=O)O[C@H]1CC[C@H]2[C@@H]3CCC4=CC(=O)CC[C@]4(C)[C@H]3CC[C@]12C [Restandol, testosterone undecanoate]
TT (Total Testosterone [3]; Example 1, R3 increased monthly to R4 then R6, pre-treatment 27.4): 21.4 nmol/L
TT (Total Testosterone [3]; Example 3, person, R6, after 3 months, pre-treatment 20): 22.2 nmol/L
FSH [4, 9]: 8.9 IU/l
Sex Hormone Binding Globulin [6]: reduction in SHBG levels on its own
SHBG ([6]; Example 1, R3 increased monthly to R4 then R6, Restandol alone, pre-treatment 73): 47 nmol/L
SHBG ([6]; Example 3, R6, after 3 months, pre-treatment 56.7): 112 nmol/L
E2 (Oestradiol; [9]): 178 pmol/L
LH (Luteinising Hormone; Example 1, R3 increased monthly to R4 then R6, pre-treatment 6.1): 6.7 IU/l
FAI (Free Androgen Index; Example 1, R3 increased monthly to R4 then R6, pre-treatment 38%): 46%
FAI (Free Androgen Index; Example 3, R6, after 3 months, pre-treatment 35): 19.8%
relief of symptoms ([1]; Example 1, person, R3 increased at monthly intervals to R4 then R6): only partial relief of symptoms
clinical response / symptoms [1]: poor clinical response
clinical results ([1]; Example 6, further reduction of testosterone dosage to the lowest level of R2): excellent
